Reference: patent US11897862B2 (Gilead Sciences, Inc., priority 2022, dated 2024)

How the values were obtained:
[1] = molecular target: T1, IKZF1 (Homo sapiens, UniProt Q13422+Q96SW2); assay: HEK293 HiBiT in vitro degradation of IKZF1; format: cell-based; conditions: for Dmax: HEK293, HEK293 HiBiT; for DC50: 18-24 hr incubation, normalized to DMSO control, read-out: IKZF1 EC50
T1 construct: expressed in transfected cells
Procedure, shortened: (§1)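 Flp-In T-REx HEK293 pools stably expressing C-terminal HiBiT-tagged IKZF1, IKZF2 or SALL4 (single-copy, Tet-On), induced overnight with […] doxycycline. Cells exposed to serially diluted compounds for 18-24 hr at 37° C. Nano-Glo lytic luminescence gave EC50 and Dmax.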

[2] = molecular target: IKZF2 (Homo sapiens, UniProt Q96SW2+Q9UKS7); assay: HEK293 HiBiT in vitro degradation of IKZF2; format: cell-based; design: expressed in transfected cells; conditions: for Dmax: HEK293, HEK293 HiBiT; for DC50: 18-24 hr incubation, normalized to DMSO control, read-out: IKZF2 EC50
Procedure, shortened: as §1

[3] = maximum degradation at the highest concentration tested
[4] = HEK293 HiBiT, maximum degradation at the highest concentration tested

T1 sequence (Q13422 whole entry): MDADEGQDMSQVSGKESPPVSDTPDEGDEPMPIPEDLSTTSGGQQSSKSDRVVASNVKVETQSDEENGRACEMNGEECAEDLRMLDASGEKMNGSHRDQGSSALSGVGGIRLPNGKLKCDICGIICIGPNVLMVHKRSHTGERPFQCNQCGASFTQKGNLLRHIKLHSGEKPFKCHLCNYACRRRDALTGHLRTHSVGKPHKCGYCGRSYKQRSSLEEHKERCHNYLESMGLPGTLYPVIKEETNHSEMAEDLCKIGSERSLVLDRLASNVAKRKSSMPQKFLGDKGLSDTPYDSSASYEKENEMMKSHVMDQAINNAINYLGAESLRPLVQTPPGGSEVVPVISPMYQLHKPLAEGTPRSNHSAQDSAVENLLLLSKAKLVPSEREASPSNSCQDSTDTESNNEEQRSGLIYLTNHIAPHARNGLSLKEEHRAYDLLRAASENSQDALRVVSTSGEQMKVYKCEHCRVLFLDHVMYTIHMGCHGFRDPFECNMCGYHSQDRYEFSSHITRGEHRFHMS
T1 sequence (Q96SW2 whole entry): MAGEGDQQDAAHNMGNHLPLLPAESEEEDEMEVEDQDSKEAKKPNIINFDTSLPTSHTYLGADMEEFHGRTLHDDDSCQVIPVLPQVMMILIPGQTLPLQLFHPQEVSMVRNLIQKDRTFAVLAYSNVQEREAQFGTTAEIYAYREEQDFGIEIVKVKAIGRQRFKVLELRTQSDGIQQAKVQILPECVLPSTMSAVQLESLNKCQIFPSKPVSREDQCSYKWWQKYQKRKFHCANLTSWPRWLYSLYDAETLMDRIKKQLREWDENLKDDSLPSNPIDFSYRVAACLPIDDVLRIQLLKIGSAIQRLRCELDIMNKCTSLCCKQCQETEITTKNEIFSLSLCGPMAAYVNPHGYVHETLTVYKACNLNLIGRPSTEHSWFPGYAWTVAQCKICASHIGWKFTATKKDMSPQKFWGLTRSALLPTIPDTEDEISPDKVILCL
T1 sequence (Q16531 whole entry partner): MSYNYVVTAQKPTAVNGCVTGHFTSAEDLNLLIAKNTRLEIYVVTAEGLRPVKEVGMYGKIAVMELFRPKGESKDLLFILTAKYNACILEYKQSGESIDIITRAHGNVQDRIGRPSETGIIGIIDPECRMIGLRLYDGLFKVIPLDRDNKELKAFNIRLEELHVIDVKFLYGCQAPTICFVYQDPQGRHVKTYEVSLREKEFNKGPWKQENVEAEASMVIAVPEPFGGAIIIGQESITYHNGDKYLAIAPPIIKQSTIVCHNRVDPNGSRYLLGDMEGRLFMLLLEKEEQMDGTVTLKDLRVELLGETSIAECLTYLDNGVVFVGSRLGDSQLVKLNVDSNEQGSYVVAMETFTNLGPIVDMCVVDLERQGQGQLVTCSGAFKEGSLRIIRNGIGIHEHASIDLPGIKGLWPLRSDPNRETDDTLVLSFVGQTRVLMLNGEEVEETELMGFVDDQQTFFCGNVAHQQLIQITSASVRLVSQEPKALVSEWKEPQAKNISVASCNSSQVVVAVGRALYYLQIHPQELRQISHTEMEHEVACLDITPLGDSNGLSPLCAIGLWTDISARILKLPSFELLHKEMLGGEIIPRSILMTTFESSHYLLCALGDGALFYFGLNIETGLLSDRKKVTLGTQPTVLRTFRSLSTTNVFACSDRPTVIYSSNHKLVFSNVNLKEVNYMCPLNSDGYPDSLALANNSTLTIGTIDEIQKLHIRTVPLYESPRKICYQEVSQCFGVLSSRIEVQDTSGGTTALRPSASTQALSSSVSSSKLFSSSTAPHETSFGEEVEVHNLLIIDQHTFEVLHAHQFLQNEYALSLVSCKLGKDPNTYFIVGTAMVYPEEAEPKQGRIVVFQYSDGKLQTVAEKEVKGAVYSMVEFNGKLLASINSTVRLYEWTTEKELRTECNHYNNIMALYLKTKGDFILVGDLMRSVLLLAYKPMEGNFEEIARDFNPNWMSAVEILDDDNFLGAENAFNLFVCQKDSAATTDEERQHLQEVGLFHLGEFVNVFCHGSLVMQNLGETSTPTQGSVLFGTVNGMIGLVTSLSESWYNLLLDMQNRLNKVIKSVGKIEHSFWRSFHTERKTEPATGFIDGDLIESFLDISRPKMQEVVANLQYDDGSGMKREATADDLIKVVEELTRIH
Sequence of IKZF2 (Q9UKS7 1-500 isoform Q9UKS7-2): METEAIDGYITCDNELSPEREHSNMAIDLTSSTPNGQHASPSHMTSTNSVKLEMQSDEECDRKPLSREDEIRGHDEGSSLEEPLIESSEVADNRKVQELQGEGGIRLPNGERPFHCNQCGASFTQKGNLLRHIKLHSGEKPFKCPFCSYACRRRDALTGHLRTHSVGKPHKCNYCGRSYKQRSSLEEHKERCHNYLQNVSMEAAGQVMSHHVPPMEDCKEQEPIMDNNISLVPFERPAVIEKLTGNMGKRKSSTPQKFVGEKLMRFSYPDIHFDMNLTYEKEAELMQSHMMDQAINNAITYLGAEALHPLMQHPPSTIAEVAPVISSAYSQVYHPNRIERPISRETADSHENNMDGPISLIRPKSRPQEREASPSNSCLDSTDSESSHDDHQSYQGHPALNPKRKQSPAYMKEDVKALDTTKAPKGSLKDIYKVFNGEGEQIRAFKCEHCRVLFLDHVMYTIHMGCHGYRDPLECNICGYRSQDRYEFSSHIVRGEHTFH
Sequence of IKZF2 (Q96SW2 whole entry): as the sequence (Q96SW2 whole entry) above
Sequence of IKZF2 (Q16531 whole entry partner): as the sequence (Q16531 whole entry partner) above

SMILES	Dmax [1, 3] [%]	DC50 ([1]; HEK293 HiBiT) [nM]	Dmax [2, 3] [%]	DC50 ([2]; HEK293 HiBiT) [nM]	IKZF1 Dmax [1, 4] [%]	IKZF2 Dmax [2, 4] [%]
CC1(C)CC2(CC(N[C@H]3CCCC[C@@H]3Cc3ccc4c(c3)CN(C3CCC(=O)NC3=O)C4=O)C2)C1 (stereo partly drawn) [Example 100]	34	61	94	12	–	–
CC(N[C@H]1CCCC[C@@H]1Cc1ccc2c(c1)CN(C1CCC(=O)NC1=O)C2=O)C1CC1 (stereo partly drawn) [Example 102]	27	242	96	6	–	–
O=C1CCC(N2Cc3cc(C[C@H]4CCCC[C@@H]4NCCC(F)(F)F)ccc3C2=O)C(=O)N1 (stereo partly drawn) [Example 104]	37	75	92	16	–	–
O=C1CCC(N2Cc3cc(C[C@H]4CCCC[C@@H]4NC4CCCC[C@@H]4F)ccc3C2=O)C(=O)N1 (stereo partly drawn) [Example 105]	31	76	96	4	–	–
O=C1CCC(N2Cc3cc(C[C@H]4CCCC[C@@H]4NC4CCCC[C@@H]4F)ccc3C2=O)C(=O)N1 (stereo partly drawn) [Example 106]	–	79	–	10	24	95
O=C1CCC(N2Cc3cc(C[C@H]4CCCC[C@@H]4NC4CCCC[C@H]4F)ccc3C2=O)C(=O)N1 (stereo partly drawn) [Example 107]	36	81	96	3	–	–
CC(=O)N1CCC(N[C@H]2CCCC[C@@H]2Cc2ccc3c(c2)CN(C2CCC(=O)NC2=O)C3=O)CC1 (stereo partly drawn) [Example 108]	–	> 1000	96	55	–	–
O=C1CCC(N2Cc3cc(C[C@H]4CCCC[C@@H]4NC4CCCCC4(F)F)ccc3C2=O)C(=O)N1 (stereo partly drawn) [Example 111]	–	> 1000	81	91	–	–
O=C1CCC(N2Cc3cc(C[C@H]4CCCC[C@@H]4NC4CC5CCC(C4)O5)ccc3C2=O)C(=O)N1 (stereo partly drawn) [Example 112]	30	56	97	3	–	–
CN(C1CCC(F)(F)CC1)[C@H]1CCCC[C@@H]1Cc1ccc2c(c1)CN(C1CCC(=O)NC1=O)C2=O (stereo partly drawn) [Example 123, 3-(5-(((1R,2S)-2-((4,4-difluorocyclohexyl)(methyl)amino)cyclohexyl)methyl)-1-oxoisoindolin-2-yl)piperidine-2,6-dione]	–	> 1000	88	26	–	–
O=C1CCC(N2Cc3cc(C[C@H]4CCOC[C@@H]4NC4CCC(F)(F)CC4)ccc3C2=O)C(=O)N1 (stereo partly drawn) [Example 126]	–	> 1000	80	114	–	–
CC(CF)N[C@H]1CCCC[C@@H]1Cc1ccc2c(c1)CN(C1CCC(=O)NC1=O)C2=O (stereo partly drawn) [Example 127]	72	15	68	15	–	–
CCCCN[C@H]1CCCC[C@@H]1Cc1ccc2c(c1)CN(C1CCC(=O)NC1=O)C2=O (stereo partly drawn) [Example 128]	19	94	98	18	–	–
CC(N[C@H]1CCCC[C@@H]1Cc1ccc2c(c1)CN(C1CCC(=O)NC1=O)C2=O)C(F)F (stereo partly drawn) [Example 130]	–	> 1000	76	148	–	–
O=C1CCC(N2Cc3cc(C[C@H]4CCCC[C@@H]4NC4CCc5ccccc54)ccc3C2=O)C(=O)N1 (stereo partly drawn) [Example 131]	45	78	96	4	–	–
O=C1CCC(N2Cc3cc(C[C@H]4CCCC[C@@H]4NC4CC5CCC5C4)ccc3C2=O)C(=O)N1 (stereo partly drawn) [Example 132]	45	66	97	4	–	–
CC(C)(C#N)CCN[C@H]1CCCC[C@@H]1Cc1ccc2c(c1)CN(C1CCC(=O)NC1=O)C2=O (stereo partly drawn) [Example 133]	30	132	96	32	–	–
COC(C)(C)CCN[C@H]1CCCC[C@@H]1Cc1ccc2c(c1)CN(C1CCC(=O)NC1=O)C2=O (stereo partly drawn) [Example 134]	–	> 1000	97	61	–	–
O=C1CCC(N2Cc3cc(C[C@H]4CCCC[C@@H]4NCCCC(F)F)ccc3C2=O)C(=O)N1 (stereo partly drawn) [Example 135]	24	77	93	16	–	–

SMILES	Dmax [1, 3] [%]	DC50 ([1]; HEK293 HiBiT) [nM]	Dmax [2, 3] [%]	DC50 ([2]; HEK293 HiBiT) [nM]	IKZF1 Dmax [1, 4] [%]	IKZF2 Dmax [2, 4] [%]
O=C1CCC(N2Cc3c(ccc(C[C@H]4CCCC[C@@H]4NC4CC5CCCC5C4)c3F)C2=O)C(=O)N1 (stereo partly drawn) [Example 141]	53	58	98	2	–	–
O=C1CCC(N2Cc3cc(C[C@H]4CCCC[C@@H]4NC4COc5ccccc5C4)ccc3C2=O)C(=O)N1 (stereo partly drawn) [Example 143]	–	> 1000	94	33	–	–
CC1(C)CC(N[C@H]2CCCC[C@@H]2Cc2ccc3c(c2)CN(C2CCC(=O)NC2=O)C3=O)CC(C)(C)C1 (stereo partly drawn) [Example 144]	–	> 1000	97	7	–	–
CC(c1ccc2c(c1)CN(C1CCC(=O)NC1=O)C2=O)[C@H]1CCCC[C@@H]1NC1CCC(F)(F)CC1 (stereo partly drawn) [Example 147]	–	> 1000	75	37	–	–
O=C1CCC(N2Cc3c(ccc(C[C@H]4OCCC[C@@H]4NCC4CCC(F)(F)CC4)c3F)C2=O)C(=O)N1 (stereo partly drawn) [Example 149]	36	45	71	46	–	–
O=C1CCC(N2Cc3c(ccc(C[C@H]4OCCC[C@@H]4NCC4CC(F)(F)C4)c3F)C2=O)C(=O)N1 (stereo partly drawn) [Example 150]	–	> 500	73	51	–	–
O=C1CCC(N2Cc3c(ccc(C[C@H]4OCCC[C@@H]4NCC4CCC4)c3F)C2=O)C(=O)N1 (stereo partly drawn) [Example 152]	–	> 500	78	26	–	–
C[C@@]1(O)CC[C@H](NC2CCC(F)(F)CC2)[C@@H](Cc2ccc3c(c2)CN(C2CCC(=O)NC2=O)C3=O)C1 (stereo partly drawn) [Example 154]	–	> 500	90	114	–	–
COC1CCC(NC2CCCOC2Cc2ccc3c(c2F)CN(C2CCC(=O)NC2=O)C3=O)CC1 (stereo not drawn) [Example 156]	–	> 1000	98	6	–	–
O=C1CCC(N2Cc3c(ccc(C[C@H]4OCCC[C@@H]4NC4CC5(CCC5)C4)c3F)C2=O)C(=O)N1 (stereo partly drawn) [Example 157]	35	61	92	8	–	–
O=C1CCC(N2Cc3c(ccc(C[C@H]4OCCC[C@@H]4NC4CC5(CCCCC5)C4)c3F)C2=O)C(=O)N1 (stereo partly drawn) [Example 158]	50	72	91	11	–	–
CC1(C)OCC(N[C@H]2CCCC[C@@H]2Cc2ccc3c(c2)CN(C2CCC(=O)NC2=O)C3=O)CO1 (stereo partly drawn) [Example 161]	–	> 1000	88	95	–	–
O=C1CCC(N2Cc3cc(C[C@H]4C[C@@H](O)CC[C@@H]4NC4CCC(F)(F)CC4)ccc3C2=O)C(=O)N1 (stereo partly drawn) [Example 162]	42	226	93	58	–	–
O=C1CCC(N2Cc3cc(C[C@H]4CCC[C@H](O)[C@@H]4NC4CCC(F)(F)CC4)ccc3C2=O)C(=O)N1 (stereo partly drawn) [Example 163]	45	328	95	14	–	–
CO[C@@H]1CCC[C@H](Cc2ccc3c(c2)CN(C2CCC(=O)NC2=O)C3=O)[C@H]1NC1CCC(F)(F)CC1 (stereo partly drawn) [Example 164]	–	> 1000	83	17	–	–
O=C1CCC(N2Cc3cc(C[C@H]4CCCC[C@@H]4NC4CCc5cn[nH]c5C4)ccc3C2=O)C(=O)N1 (stereo partly drawn) [Example 165]	28	270	98	20	–	–
CCCC(CCC)N[C@H]1CCCC[C@@H]1Cc1ccc2c(c1)CN(C1CCC(=O)NC1=O)C2=O (stereo partly drawn) [Example 166]	–	> 1000	96	23	–	–
O=C1CCC(N2Cc3cc(C[C@H]4CCCC[C@@H]4NC4CCC5(CCO5)CC4)ccc3C2=O)C(=O)N1 (stereo partly drawn) [Example 171]	37	198	98	26	–	–
